The results in this text go back to ChEMBL document CHEMBL1136245, “HIV-1 protease inhibitors with picomolar potency against PI-resistant HIV-1 by modification of the P1' substituent” (Bioorg Med Chem Lett, 2003).

Values after ≈ are worked out from the molar mass of the structure shown.

Series [1] concerns the target T1, Cytochrome P450 2C9 (Homo sapiens, UniProt P11712). The series is described as follows: Inhibition of human liver microsome Cytochrome P450 2C9. Type of series: ADME, microsomes.
The test system of series [2] is MT4. The series is described as follows: Antiviral activity of compound against spread of wild type K-60C virus infection in MT-4 human T-lymphoid cells. Type of series: functional. The following applies: read-out: CIC95.
Series [3] deals with MT4. The series is described as follows: Antiviral activity of compound against spread of wild type Q-60C virus infection in MT-4 human T-lymphoid cells. Type of series: functional. The settings on record: read-out: CIC95.
The subject of series [4] is MT4. The series can be described thus: Antiviral activity of compound against spread of wild type V-18C virus infection in MT-4 human T-lymphoid cells. Type of series: functional. The following applies: read-out: CIC95.
In series [5] the target is T2, Human immunodeficiency virus type 1 protease (Human immunodeficiency virus 1, UniProt Q72874). The series is described as follows: Inhibitory activity of compound against HIV-1 protease in wild type NL4-3 virus.
Series [6] concerns MT4. The series is described as follows: Antiviral activity of compound against spread of wild type NL4-3 virus infection in MT-4 human T-lymphoid cells. The following applies: read-out: CIC95. Type of series: functional.
The nature of series [7]: Solubility of compound at pH 5.2. It counts as physicochemical. The settings on record: buffer.
The next series addresses Cytochrome P450 3A4 (Homo sapiens, UniProt P08684). The series can be described thus: Inhibition of human liver microsome Cytochrome P450 3A4. Type of series: ADME, microsomes. (Liver microsomes are a subcellular fraction often used to study metabolism.)
For series [8], the target named is T3, Cytochrome P450 2D6 (Homo sapiens, UniProt P10635). The series is described as follows: (§1) Inhibition of human liver microsome Cytochrome P450 2D6. It counts as ADME.
T3 sequence (P10635 whole entry): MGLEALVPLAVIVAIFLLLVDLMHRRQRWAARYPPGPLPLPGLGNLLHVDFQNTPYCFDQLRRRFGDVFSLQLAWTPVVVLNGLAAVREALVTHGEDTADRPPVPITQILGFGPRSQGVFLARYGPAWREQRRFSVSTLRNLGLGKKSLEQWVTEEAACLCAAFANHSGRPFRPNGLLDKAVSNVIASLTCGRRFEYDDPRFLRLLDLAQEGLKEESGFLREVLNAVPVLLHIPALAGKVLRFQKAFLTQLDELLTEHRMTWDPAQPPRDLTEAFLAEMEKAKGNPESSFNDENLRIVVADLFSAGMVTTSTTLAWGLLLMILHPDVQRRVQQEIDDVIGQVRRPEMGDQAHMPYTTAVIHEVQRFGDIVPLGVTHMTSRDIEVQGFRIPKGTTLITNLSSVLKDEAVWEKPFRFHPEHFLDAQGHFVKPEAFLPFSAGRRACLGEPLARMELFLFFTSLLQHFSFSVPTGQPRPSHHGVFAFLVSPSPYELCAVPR
In series [9] the target is T2, Human immunodeficiency virus type 1 protease. The series can be described thus: Inhibitory activity of compound against HIV-1 protease in HIV-1 (V-18C) strain.
A short description of series [10]: Clearance of compound after both po and iv administration at a dose of 5 mg/kg and 2 mg/kg resp in dog. It counts as ADME, organism-based, Canis lupus familiaris. The following applies: in vivo.
A short description of series [11]: Half life of compound after both po and iv administration at a dose of 5 mg/kg and 2 mg/kg resp in dog. It counts as ADME, organism-based, Canis lupus familiaris. The following applies: in vivo.
A short description of series [12]: Area under curve of compound after both po and iv administration at a dose of 5 mg/kg and 2 mg/kg resp in dog. Type of series: ADME, organism-based, Canis lupus familiaris. The following applies: in vivo.
Series [13] addresses T3, Cytochrome P450 2D6. The description is as §1. Type of series: ADME, microsomes.
In series [14] the target is T2, Human immunodeficiency virus type 1 protease. The series can be described thus: Inhibitory activity of compound against HIV-1 protease in HIV-1 (K-60C) strain.
A short description of series [15]: Cmax of compound after both po and iv administration at a dose of 5 mg/kg and 2 mg/kg resp in dog. It counts as ADME, organism-based, Canis lupus familiaris. The settings on record: in vivo.
Series [16] is described as follows: Oral bioavailability in dog (dose 5 mg/kg p.o. and 2 mg/kg i.v.). It counts as ADME, organism-based, Canis lupus familiaris. The settings on record: in vivo.
Series [17] addresses T2, Human immunodeficiency virus type 1 protease. The series can be described thus: Inhibitory activity of compound against HIV-1 protease in HIV-1 (Q-60C) strain.
In series [18] the target is T1, Cytochrome P450 2C9. The series can be described thus: Inhibition of huamn liver microsome Cytochrome P450 2C9. Type of series: ADME, microsomes.

Cytochrome P450 3A4, sequence (P08684 whole entry): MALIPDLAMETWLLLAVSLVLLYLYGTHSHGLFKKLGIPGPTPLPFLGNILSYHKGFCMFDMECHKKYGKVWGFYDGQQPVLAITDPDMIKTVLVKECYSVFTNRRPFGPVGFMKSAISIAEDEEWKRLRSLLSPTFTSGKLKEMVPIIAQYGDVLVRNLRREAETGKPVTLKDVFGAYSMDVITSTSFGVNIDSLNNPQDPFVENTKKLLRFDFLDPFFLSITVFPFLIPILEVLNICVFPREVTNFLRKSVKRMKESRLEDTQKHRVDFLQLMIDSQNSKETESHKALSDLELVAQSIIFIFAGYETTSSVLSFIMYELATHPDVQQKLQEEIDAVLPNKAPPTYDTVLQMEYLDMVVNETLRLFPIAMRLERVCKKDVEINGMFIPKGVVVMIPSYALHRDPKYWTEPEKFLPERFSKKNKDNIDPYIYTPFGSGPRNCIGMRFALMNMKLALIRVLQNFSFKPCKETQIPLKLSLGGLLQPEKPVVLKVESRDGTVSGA
T1 sequence (P11712 whole entry): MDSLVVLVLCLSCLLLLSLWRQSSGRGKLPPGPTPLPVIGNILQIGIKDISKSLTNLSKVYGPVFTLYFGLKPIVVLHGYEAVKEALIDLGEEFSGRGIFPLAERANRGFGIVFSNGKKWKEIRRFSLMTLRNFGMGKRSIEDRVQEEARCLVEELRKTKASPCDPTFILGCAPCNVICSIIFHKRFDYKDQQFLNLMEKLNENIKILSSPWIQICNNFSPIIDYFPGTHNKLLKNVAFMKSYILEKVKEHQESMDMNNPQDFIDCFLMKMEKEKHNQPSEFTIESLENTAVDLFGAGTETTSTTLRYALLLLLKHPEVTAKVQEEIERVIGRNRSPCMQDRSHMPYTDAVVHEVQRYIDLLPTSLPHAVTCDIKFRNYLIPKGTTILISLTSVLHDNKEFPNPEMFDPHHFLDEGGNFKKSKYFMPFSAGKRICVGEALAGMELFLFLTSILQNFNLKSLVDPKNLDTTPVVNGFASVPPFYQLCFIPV

Regarding `O=C(N[C@H]1c2ccccc2OC[C@H]1O)[C@H](Cc1cccnc1)C[C@H](O)CN1CCN(Cc2cc3cccc(Cl)c3o2)C[C@H]1C(=O)NCC(F)(F)F`, the concentration for half-maximal inhibition (IC50) at Cytochrome P450 2C9 [1] came to 27300 nM; in series [5], 0.02 nM; at Cytochrome P450 3A4, 500 nM; against Cytochrome P450 2D6 [8], 8800 nM; in [9], 0.12 nM. Also, the IC95 was 31 nM in the series with MT4 [2], 31 nM in the series with MT4 [3], at most 8 nM in the series on MT4 [4] and 10 nM in the series on MT4 [6]. Also, in series [7], the solubility worked out at 10 µg/mL (≈ 13.7 µM).
Consider `O=C(N[C@H]1c2ccccc2OC[C@H]1O)[C@H](Cc1ccncc1)C[C@H](O)CN1CCN(Cc2cc3ccccc3o2)C[C@H]1C(=O)NCC(F)(F)F`, for which, in series [10], the clearance amounted to 22.5 mL/min/kg. Moreover, the half-life in [11] came out at 1.7 h. In addition, the AUC in [12] was found to be 0.22 µM·h. In addition, the IC95 in the series on MT4 [3] came to 250 nM; with MT4 [6], 15 nM. Further, the IC50 came to 0.1 nM in [5]; 3600 nM against Cytochrome P450 2D6 [13]; 10 nM in series [14]; 2200 nM against Cytochrome P450 3A4; 2.2 nM in series [9]. For the same compound, in [7], the solubility was 280 µg/mL (≈ 402 µM). In [15], the Cmax turned out to be 380 nM. In [16], this compound showed a bioavailability of 4%.
Consider `O=C(N[C@H]1c2ccccc2OC[C@H]1O)[C@H](Cc1ccccc1)C[C@H](O)CN1CCN(Cc2ccc(-c3ccncc3)o2)C[C@H]1C(=O)NCC(F)(F)F`, for which the IC95 is 15 nM in the series with MT4 [2], 31 nM with MT4 [3], 31 nM in the series with MT4 [4] and at most 8 nM in the series with MT4 [6]. The compound also came in with a clearance in series [10] of 24.5 mL/min/kg. In series [11], this compound returned a half-life of 1 h. The AUC in series [12] is 2.58 µM·h. Moreover, the concentration in solution in [7] (solubility) was 670 µg/mL (≈ 928 µM). Also, the IC50 in [14] stood at 0.6 nM; in series [9], 1.3 nM; in series [17] it was 0.8 nM.
As for `O=C(N[C@H]1c2ccccc2OC[C@H]1O)[C@H](Cc1cccnc1)C[C@H](O)CN1CCN(Cc2ccc(-c3ccccc3)o2)C[C@H]1C(=O)NCC(F)(F)F`, the IC95 with MT4 [2], with MT4 [3], with MT4 [4] and with MT4 [6] was at most 8 nM throughout. The same compound showed a clearance in [10] of 20.5 mL/min/kg. This compound also yielded a half-life in series [11] of 1.23 h. Also, the IC50 on Cytochrome P450 2C9 [18] was found to be 83900 nM; in series [5], 0.02 nM; at Cytochrome P450 2D6 [13] it was 15600 nM; in [14] it was 0.06 nM; against Cytochrome P450 3A4, 430 nM; in [9], 0.15 nM. The compound also showed an IC50 in [17] of 0.07 nM. This compound registered an AUC in series [12] of 0.08 µM·h. The concentration in solution in [7] (solubility) was 10 µg/mL (≈ 13.9 µM). This compound showed a Cmax in series [15] of 110 nM. The bioavailability in series [16] amounted to 1%.
As for `CC(C)(C)NC(=O)[C@@H]1CN(Cc2cccnc2)CCN1C[C@@H](O)C[C@@H](Cc1ccccc1)C(=O)N[C@H]1c2ccccc2C[C@H]1O`, the IC95 in the series with MT4 [2] was over 1000 nM; in the series on MT4 [3] it was over 1000 nM; with MT4 [4], over 1000 nM; with MT4 [6], 50 nM.
`O=C(N[C@H]1c2ccccc2OC[C@H]1O)[C@H](Cc1ccncc1)C[C@H](O)CN1CCN(Cc2ccc(-c3ccccc3)o2)C[C@H]1C(=O)NCC(F)(F)F`: the IC95 with MT4 [2] was at most 8 nM; in the series on MT4 [3], 31 nM; with MT4 [4] it was 31 nM; with MT4 [6] it was 15 nM. This compound showed a clearance in series [10] of 17.4 mL/min/kg. The compound further displayed a half-life in series [11] of 1.07 h. This compound displayed an area under the curve (AUC) in [12] of 0.16 µM·h. In addition, the IC50 amounted to 0.04 nM in series [5]; 14900 nM against Cytochrome P450 2D6 [13]; 0.11 nM in series [14]; 1500 nM on Cytochrome P450 3A4; 0.34 nM in series [9]; 0.2 nM in [17]. Moreover, the concentration in solution in series [7] (solubility) was 40 µg/mL (≈ 55.4 µM). The compound also gave a Cmax in series [15] of 210 nM. Moreover, the bioavailability in series [16] came to 2%.
As to `O=C(N[C@H]1c2ccccc2OC[C@H]1O)[C@H](Cc1cccnc1)C[C@H](O)CN1CCN(Cc2cc3ccccc3o2)C[C@H]1C(=O)NCC(F)(F)F`, the IC95 in the series with MT4 [2] amounted to 125 nM; in the series on MT4 [3], 125 nM; in the series with MT4 [4] it was 31 nM; in the series on MT4 [6], 15 nM. In [10], this compound displayed a clearance of 15 mL/min/kg. In [11], this compound registered a half-life of 0.867 h. For the same compound, the IC50 was 48800 nM against Cytochrome P450 2C9 [18]; 0.04 nM in series [5]; 19000 nM on Cytochrome P450 2D6 [13]; 3.7 nM in series [14]; 480 nM at Cytochrome P450 3A4; 1.3 nM in [9]. In series [17], this compound returned an IC50 of 2.7 nM. The compound also yielded an AUC in series [12] of 1.94 µM·h. This compound gave a solubility in series [7] of 310 µg/mL (≈ 446 µM). Also, the Cmax in series [15] was found to be 3360 nM. The same compound registered a bioavailability in series [16] of 24%.
Consider `O=C(N[C@H]1c2ccccc2OC[C@H]1O)[C@H](Cc1ccncc1)C[C@H](O)CN1CCN(Cc2cc3cccc(Cl)c3o2)C[C@H]1C(=O)NCC(F)(F)F`, for which the IC95 with MT4 [2] is 62 nM; in the series with MT4 [3], 125 nM; with MT4 [4], at most 8 nM; in the series with MT4 [6] it was at most 8 nM. The IC50 worked out at 0.03 nM in series [5], 0.92 nM in series [14] and 0.14 nM in [9]. In [7], this compound showed a solubility of under 10 µg/mL.

By IC50 is commonly meant the concentration needed to halve the response being measured. Low readings indicate greater potency in that assay, high ones weaker potency in that assay. By solubility is commonly meant the dissolved amount per volume that the medium holds. Higher therefore signals a readily soluble substance. For orientation: half-life means the time needed for the level to fall by half in the phase considered. By AUC is commonly meant the area under the concentration-time curve, a measure of exposure. A word on the Cmax: it is the peak of the concentration-time curve. By bioavailability is commonly meant the share of a dose that reaches the circulation, judged against a reference dose that is usually intravenous. Read a high bioavailability as good availability.
